Values of other authors, collected in paper PMC6270209, “Synthesis, Antimycobacterial Activity and In Vitro Cytotoxicity of 5-Chloro-N-phenylpyrazine-2-carboxamides” (Molecules, 2013).

Test system: M. tbc strains (PZA-sensitive, PZA-resistant)
Design: method as in PMID 9527809
Conditions: cited from earlier work

NC(=O)c1cnc(Cl)cn1 [Compound 5-Cl-PZA, 5-chloropyrazine-2-carboxamide, reference compound]
MIC for PZA-resistant strains (PZA-resistant strains): 8 to 64 µg/mL | MIC for PZA-sensitive M. tbc strains (PZA-sensitive strains): 8 to 32 µg/mL
